Source: patent US20110082130A1 (LIGAND PHARMACEUTICALS, INC., priority 2006, published 2011)

Biological target: T1, chimeric human H3 receptor (Homo sapiens, UniProt Q9Y5N1)
T1 construct: made in house; host or cells: Sf9 insect cells (baculovirus); P2 membrane preparation
Experiment: Chimeric human H3 receptor GTP binding assay (agonist-stimulated GTP-gamma35S binding, Example 7)
Format: biochemical
Settings: assay of Example 7; "*" in Ki of Table II
How it was run: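 Sf9 membranes co-expressing chimeric human H3 receptor and heterotrimeric G-protein, 35 μg/tube, in pH 7.4 Tris buffer with 10 μM GDP. Test compounds (10^−10–10^−6 M) competed against 1 μM histamine, […] GTP-gamma35S, 60 min at room temperature. Filter-bound radioactivity counted; IC50 converted to Ki by Cheng-Prusoff. Agonism/inverse agonism tested without histamine (EC50).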

T1 sequence (Q9Y5N1 with tags, fused parts or gaps): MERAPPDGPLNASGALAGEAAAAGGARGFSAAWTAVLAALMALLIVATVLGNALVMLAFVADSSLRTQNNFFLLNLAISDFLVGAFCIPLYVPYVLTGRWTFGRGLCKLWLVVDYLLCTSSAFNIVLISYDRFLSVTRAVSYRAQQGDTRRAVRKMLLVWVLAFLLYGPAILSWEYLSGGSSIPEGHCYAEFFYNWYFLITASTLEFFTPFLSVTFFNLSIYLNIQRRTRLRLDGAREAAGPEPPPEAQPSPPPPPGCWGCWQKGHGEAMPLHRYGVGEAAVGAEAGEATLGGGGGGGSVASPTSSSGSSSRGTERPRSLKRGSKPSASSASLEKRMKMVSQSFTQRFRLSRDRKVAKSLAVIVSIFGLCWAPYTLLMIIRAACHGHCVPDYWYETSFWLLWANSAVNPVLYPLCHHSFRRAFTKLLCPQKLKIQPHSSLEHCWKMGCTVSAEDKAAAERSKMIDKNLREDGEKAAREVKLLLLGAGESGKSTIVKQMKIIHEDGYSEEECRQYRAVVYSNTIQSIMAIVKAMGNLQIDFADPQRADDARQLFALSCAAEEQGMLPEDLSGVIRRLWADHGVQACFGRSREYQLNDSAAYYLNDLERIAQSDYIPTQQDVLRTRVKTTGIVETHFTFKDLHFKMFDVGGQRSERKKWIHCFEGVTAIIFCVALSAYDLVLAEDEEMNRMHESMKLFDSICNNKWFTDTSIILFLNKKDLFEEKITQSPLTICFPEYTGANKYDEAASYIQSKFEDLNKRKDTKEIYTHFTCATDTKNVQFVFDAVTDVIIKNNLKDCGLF

Ki, < 1000 nM:
Cc1ccc(F)c(-c2nc3c(s2)CN(CC(=O)N2CCN(C4CCC4)CC2)CC3)c1Cl [Compound 365, 2-(2-chloro-6-fluoro-3-methylphenyl)-5-[2-(4-cyclobutylpiperazin-1-yl)-2-oxoethyl]-4,5,6,7-tetrahydro[1,3]thiazolo [5,4-c]pyridine]
Cc1cc(C)c(-c2nc3c(s2)CN(CC(=O)N2CCN(C4CCC4)CC2)CC3)c(C)c1 [Compound 366, 5-[2-(4-cyclobutylpiperazin-1-yl)-2-oxoethyl]-2-mesityl-4,5,6,7-tetrahydro[1,3]thiazolo [5,4-c]pyridine]
N#Cc1cccc(-c2nc3c(s2)CN(CC(=O)N2CCN(C4CCC4)CC2)CC3)c1 [Compound 367, 3-{5-[2-(4-cyclobutylpiperazin-1-yl)-2-oxoethyl]-4,5,6,7-tetrahydro[1,3]thiazolo [5,4-c]pyridin-2-yl}benzonitrile]
N#Cc1ccc(-c2nc3c(s2)CN(CC(=O)N2CCN(C4CCC4)CC2)CC3)cc1 [Compound 368, 4-{5-[2-(4-cyclobutylpiperazin-1-yl)-2-oxoethyl]-4,5,6,7-tetrahydro[1,3]thiazolo [5,4-c]pyridin-2-yl}benzonitrile]
O=C(CN1CCc2nc(-c3ccc(C(F)(F)F)cc3)sc2C1)N1CCN(C2CCC2)CC1 [Compound 369, 5-[2-(4-cyclobutylpiperazin-1-yl)-2-oxoethyl]-2-[4-(trifluoromethyl)phenyl]-4,5,6,7-tetrahydro[1,3]thiazolo [5,4-c]pyridine]
CC(=O)c1cccc(-c2nc3c(s2)CN(CC(=O)N2CCN(C4CCC4)CC2)CC3)c1 [Compound 370, 1-(3-{5-[2-(4-cyclobutylpiperazin-1-yl)-2-oxoethyl]-4,5,6,7-tetrahydro[1,3]thiazolo [5,4-c]pyridin-2-yl}phenyl)ethanone]
O=C(CN1CCc2nc(-c3cc(C(F)(F)F)cc(C(F)(F)F)c3)sc2C1)N1CCN(C2CCC2)CC1 [Compound 371, 2-[3,5-bis(trifluoromethyl)phenyl]-5-[2-(4-cyclobutylpiperazin-1-yl)-2-oxoethyl]-4,5,6,7-tetrahydro[1,3]thiazolo [5,4-c]pyridine]
O=C(CN1CCc2nc(-c3cccc(C(F)(F)F)c3)sc2C1)N1CCN(C2CCC2)CC1 [Compound 372, 5-[2-(4-cyclobutylpiperazin-1-yl)-2-oxoethyl]-2-[3-(trifluoromethyl)phenyl]-4,5,6,7-tetrahydro[1,3]thiazolo [5,4-c]pyridine]
O=C(CN1CCc2nc(-c3ccc(Cl)c(C(F)(F)F)c3)sc2C1)N1CCN(C2CCC2)CC1 [Compound 373, 2-[4-chloro-3-(trifluoromethyl)phenyl]-5-[2-(4-cyclobutylpiperazin-1-yl)-2-oxoethyl]-4,5,6,7-tetrahydro[1,3]thiazolo [5,4-c]pyridine]
O=C(CN1CCc2nc(-c3cc(C(F)(F)F)ccc3Cl)sc2C1)N1CCN(C2CCC2)CC1 [Compound 374, 2-[2-chloro-5-(trifluoromethyl)phenyl]-5-[2-(4-cyclobutylpiperazin-1-yl)-2-oxoethyl]-4,5,6,7-tetrahydro[1,3]thiazolo [5,4-c]pyridine]
CCOC(=O)c1ccc(-c2nc3c(s2)CN(CC(=O)N2CCN(C4CCC4)CC2)CC3)cc1 [Compound 375, ethyl 4-{5-[2-(4-cyclobutylpiperazin-1-yl)-2-oxoethyl]-4,5,6,7-tetrahydro[1,3]thiazolo [5,4-c]pyridin-2-yl}benzoate]
CCOC(=O)c1cccc(-c2nc3c(s2)CN(CC(=O)N2CCN(C4CCC4)CC2)CC3)c1 [Compound 376, ethyl 3-{5-[2-(4-cyclobutylpiperazin-1-yl)-2-oxoethyl]-4,5,6,7-tetrahydro[1,3]thiazolo [5,4-c]pyridin-2-yl}benzoate]
O=C(CN1CCc2cc(-c3ccc4c(c3)OCO4)ccc2C1)N1CCN(C2CCC2)CC1 [Compound 377, 6-(1,3-benzodioxol-5-yl)-2-[2-(4-cyclobutylpiperazin-1-yl)-2-oxoethyl]-1,2,3,4-tetrahydroisoquinoline]
